Experimental data taken from ChEMBL document CHEMBL3232987, “Investigation of Ugi-4CC derived 1H-tetrazol-5-yl-(aryl) methyl piperazinyl-6-fluoro-4-oxo-1,4-dihydroquinoline-3-carboxylic acid: synthesis, biology and 3D-QSAR analysis” (Eur J Med Chem, 2014).
≈ marks a conversion by molar mass, not a printed value.

What was measured:
Staphylococcus aureus [1] = assay: Antibacterial activity against Staphylococcus aureus ATCC 29213 by NCCLS two-fold dilution method; type: functional
Staphylococcus aureus [2] = assay: Antibacterial activity against gentamicin-resistant Staphylococcus aureus ATCC 33592 by NCCLS two-fold dilution method; type: functional
Staphylococcus aureus [3] = assay: Antibacterial activity against Staphylococcus aureus ATCC 25923 after 24 hrs by spectrophotometric analysis; type: functional, organism-based; conditions: Staphylococcus aureus, ATCC 25923, 24 h; for IC50: read-out: IC50
Staphylococcus aureus [4] = assay: Antibacterial activity against methicillin-resistant Staphylococcus aureus ATCC 700699 after 24 hrs by spectrophotometric analysis; type: functional, organism-based; conditions: Staphylococcus aureus, ATCC 700699, 24 h; for IC50: read-out: IC50
Staphylococcus aureus [5] = assay: Antibacterial activity against Staphylococcus aureus ATCC 29213 after 24 hrs by spectrophotometric analysis; type: functional, organism-based; conditions: Staphylococcus aureus, ATCC 29213, 24 h; for IC50: read-out: IC50
Staphylococcus aureus [6] = assay: Antibacterial activity against Staphylococcus aureus ATCC 25923 by NCCLS two-fold dilution method; type: functional; conditions: for MIC: Staphylococcus aureus, ATCC 25923
Staphylococcus aureus [7] = assay: Antibacterial activity against methicillin-resistant Staphylococcus aureus ATCC 700699 by NCCLS two-fold dilution method; type: functional
Staphylococcus aureus [8] = assay: Antibacterial activity against gentamicin-resistant Staphylococcus aureus ATCC 33592 after 24 hrs by spectrophotometric analysis; type: functional, organism-based; conditions: Staphylococcus aureus, ATCC 33592, 24 h; for IC50: read-out: IC50

Compound	MIC (Staphylococcus aureus [1])	MIC (Staphylococcus aureus [2])	MIC (Staphylococcus aureus [3])	IC50 (Staphylococcus aureus [3])	MIC (Staphylococcus aureus [4])	IC50 (Staphylococcus aureus [4])	MIC (Staphylococcus aureus [5])	IC50 (Staphylococcus aureus [5])	-logMIC (Staphylococcus aureus [6])	MIC (Staphylococcus aureus [6])	MIC (Staphylococcus aureus [7])	MIC (Staphylococcus aureus [8])	IC50 (Staphylococcus aureus [8])
O=C(O)c1cn(Cc2ccc(C(F)(F)F)cc2)c2cc(N3CCN(C(c4cccc5ccccc45)c4nnnn4C4CCCCC4)CC3)c(F)cc2c1=O (configuration not stated)	> 50 µg/mL	> 50 µg/mL	> 50 µg/mL	50 µg/mL (≈ 67.6 µM)	> 50 µg/mL	> 50 µg/mL	> 50 µg/mL	> 50 µg/mL	4.169	50 µg/mL (≈ 67.6 µM)	> 50 µg/mL	> 50 µg/mL	> 50 µg/mL
O=C(O)c1cn(Cc2ccc(C(F)(F)F)cc2)c2cc(N3CCN(C(c4ccc(F)cc4)c4nnnn4C4CCCCC4)CC3)c(F)cc2c1=O (configuration not stated)	> 50 µg/mL	> 50 µg/mL	12.5 µg/mL (≈ 17.7 µM)	5.2 µg/mL (≈ 7.35 µM)	> 50 µg/mL	> 50 µg/mL	> 50 µg/mL	> 50 µg/mL	4.752	12.5 µg/mL (≈ 17.7 µM)	> 50 µg/mL	> 50 µg/mL	> 50 µg/mL
CC(C)c1ccc(C(c2nnnn2C(C)(C)C)N2CCN(c3cc4c(cc3F)c(=O)c(C(=O)O)cn4Cc3ccc(C(F)(F)F)cc3)CC2)cc1 (configuration not stated)	6.25 µg/mL (≈ 8.86 µM)	3.12 µg/mL (≈ 4.42 µM)	3.12 µg/mL (≈ 4.42 µM)	1.8 µg/mL (≈ 2.55 µM)	1.6 µg/mL (≈ 2.27 µM)	1.4 µg/mL (≈ 1.98 µM)	3.1 µg/mL (≈ 4.39 µM)	1.5 µg/mL (≈ 2.13 µM)	4.149	3.12 µg/mL (≈ 4.42 µM)	3.12 µg/mL (≈ 4.42 µM)	0.87 µg/mL (≈ 1.23 µM)	0.8 µg/mL (≈ 1.13 µM)
O=C(O)c1cn(Cc2ccc(C(F)(F)F)cc2)c2cc(N3CCN(C(c4ccccc4)c4nnnn4C4CCCCC4)CC3)c(F)cc2c1=O (configuration not stated)	6.25 µg/mL (≈ 9.06 µM)	25 µg/mL (≈ 36.2 µM)	17.5 µg/mL (≈ 25.4 µM)	5.2 µg/mL (≈ 7.54 µM)	> 50 µg/mL	> 50 µg/mL	4.4 µg/mL (≈ 6.38 µM)	2.2 µg/mL (≈ 3.19 µM)	4.741	12.5 µg/mL (≈ 18.1 µM)	> 50 µg/mL	40.5 µg/mL (≈ 58.7 µM)	21 µg/mL (≈ 30.4 µM)
CCn1cc(C(=O)O)c(=O)c2cc(F)c(N3CCN(C(c4ccc(OC)c5ccccc45)c4nnnn4C4CCCCC4)CC3)cc21 (configuration not stated)	12.5 µg/mL (≈ 19.5 µM)	6.25 µg/mL (≈ 9.77 µM)	4.4 µg/mL (≈ 6.88 µM)	1.7 µg/mL (≈ 2.66 µM)	9 µg/mL (≈ 14.1 µM)	4.06 µg/mL (≈ 6.35 µM)	6.9 µg/mL (≈ 10.8 µM)	3.6 µg/mL (≈ 5.63 µM)	5.01	6.25 µg/mL (≈ 9.77 µM)	25 µg/mL (≈ 39.1 µM)	4.7 µg/mL (≈ 7.35 µM)	3.6 µg/mL (≈ 5.63 µM)
CC(C)(C)n1nnnc1C(c1ccccc1)N1CCN(c2cc3c(cc2F)c(=O)c(C(=O)O)cn3Cc2ccc(C(F)(F)F)cc2)CC1 (configuration not stated)	25 µg/mL (≈ 37.7 µM)	12.5 µg/mL (≈ 18.8 µM)	50 µg/mL (≈ 75.3 µM)	50 µg/mL (≈ 75.3 µM)	50 µg/mL (≈ 75.3 µM)	50 µg/mL (≈ 75.3 µM)	50 µg/mL (≈ 75.3 µM)	50 µg/mL (≈ 75.3 µM)	4.122	50 µg/mL (≈ 75.3 µM)	25 µg/mL (≈ 37.7 µM)	50 µg/mL (≈ 75.3 µM)	50 µg/mL (≈ 75.3 µM)
CC(C)(C)n1nnnc1C(c1cccc2ccccc12)N1CCN(c2cc3c(cc2F)c(=O)c(C(=O)O)cn3Cc2ccc(C(F)(F)F)cc2)CC1 (configuration not stated)	50 µg/mL (≈ 70.1 µM)	50 µg/mL (≈ 70.1 µM)	50 µg/mL (≈ 70.1 µM)	50 µg/mL (≈ 70.1 µM)	50 µg/mL (≈ 70.1 µM)	50 µg/mL (≈ 70.1 µM)	50 µg/mL (≈ 70.1 µM)	> 50 µg/mL	4.455	50 µg/mL (≈ 70.1 µM)	50 µg/mL (≈ 70.1 µM)	> 50 µg/mL	> 50 µg/mL
CC(C)(C)n1nnnc1C(c1ccco1)N1CCN(c2cc3c(cc2F)c(=O)c(C(=O)O)cn3Cc2ccc(C(F)(F)F)cc2)CC1 (configuration not stated)	25 µg/mL (≈ 38.2 µM)	12.5 µg/mL (≈ 19.1 µM)	50 µg/mL (≈ 76.5 µM)	50 µg/mL (≈ 76.5 µM)	50 µg/mL (≈ 76.5 µM)	50 µg/mL (≈ 76.5 µM)	50 µg/mL (≈ 76.5 µM)	50 µg/mL (≈ 76.5 µM)		50 µg/mL (≈ 76.5 µM)	50 µg/mL (≈ 76.5 µM)	50 µg/mL (≈ 76.5 µM)	50 µg/mL (≈ 76.5 µM)
COc1ccc(C(c2nnnn2C2CCCCC2)N2CCN(c3cc4c(cc3F)c(=O)c(C(=O)O)cn4Cc3ccc(C(F)(F)F)cc3)CC2)c2ccccc12 (configuration not stated)	> 50 µg/mL	> 50 µg/mL	> 50 µg/mL	50 µg/mL (≈ 65 µM)	> 50 µg/mL	> 50 µg/mL	> 50 µg/mL	> 50 µg/mL	4.187	50 µg/mL (≈ 65 µM)	> 50 µg/mL	> 50 µg/mL	> 50 µg/mL
O=C(O)c1cn(Cc2ccc(C(F)(F)F)cc2)c2cc(N3CCN(C(c4ccncc4)c4nnnn4C4CCCCC4)CC3)c(F)cc2c1=O (configuration not stated)	50 µg/mL (≈ 72.4 µM)	> 50 µg/mL	50 µg/mL (≈ 72.4 µM)	> 50 µg/mL	50 µg/mL (≈ 72.4 µM)	> 50 µg/mL	50 µg/mL (≈ 72.4 µM)	> 50 µg/mL	4.14	50 µg/mL (≈ 72.4 µM)	50 µg/mL (≈ 72.4 µM)	> 50 µg/mL	50 µg/mL (≈ 72.4 µM)
CCn1cc(C(=O)O)c(=O)c2cc(F)c(N3CCN(C(c4ccc(OC)c5ccccc45)c4nnnn4C(C)(C)C)CC3)cc21 (configuration not stated)	25 µg/mL (≈ 40.7 µM)	12.5 µg/mL (≈ 20.4 µM)	18 µg/mL (≈ 29.3 µM)	7 µg/mL (≈ 11.4 µM)	6.9 µg/mL (≈ 11.2 µM)	7.5 µg/mL (≈ 12.2 µM)	50 µg/mL (≈ 81.5 µM)	50 µg/mL (≈ 81.5 µM)	4.69	12.5 µg/mL (≈ 20.4 µM)	12.5 µg/mL (≈ 20.4 µM)	50 µg/mL (≈ 81.5 µM)	50 µg/mL (≈ 81.5 µM)
CCn1cc(C(=O)O)c(=O)c2cc(F)c(N3CCN(C(c4ccc(C(C)C)cc4)c4nnnn4C(C)(C)C)CC3)cc21 (configuration not stated)	50 µg/mL (≈ 86.9 µM)	> 50 µg/mL	50 µg/mL (≈ 86.9 µM)	50 µg/mL (≈ 86.9 µM)	50 µg/mL (≈ 86.9 µM)	50 µg/mL (≈ 86.9 µM)	> 50 µg/mL	50 µg/mL (≈ 86.9 µM)	4.06	50 µg/mL (≈ 86.9 µM)	50 µg/mL (≈ 86.9 µM)	50 µg/mL (≈ 86.9 µM)	> 50 µg/mL
CC(C)c1ccc(C(c2nnnn2C2CCCCC2)N2CCN(c3cc4c(cc3F)c(=O)c(C(=O)O)cn4Cc3ccc(C(F)(F)F)cc3)CC2)cc1 (configuration not stated)	> 50 µg/mL	> 50 µg/mL	50 µg/mL (≈ 68.3 µM)	> 50 µg/mL	50 µg/mL (≈ 68.3 µM)	> 50 µg/mL	> 50 µg/mL	50 µg/mL (≈ 68.3 µM)	4.165	50 µg/mL (≈ 68.3 µM)	> 50 µg/mL	> 50 µg/mL	50 µg/mL (≈ 68.3 µM)
CCn1cc(C(=O)O)c(=O)c2cc(F)c(N3CCN(C(c4ccc(C(C)C)cc4)c4nnnn4C4CCCCC4)CC3)cc21 (configuration not stated)	12.5 µg/mL (≈ 20.8 µM)	3.12 µg/mL (≈ 5.19 µM)	19 µg/mL (≈ 31.6 µM)	8 µg/mL (≈ 13.3 µM)	50 µg/mL (≈ 83.1 µM)	50 µg/mL (≈ 83.1 µM)	3.3 µg/mL (≈ 5.48 µM)	3.1 µg/mL (≈ 5.15 µM)	4.682	12.5 µg/mL (≈ 20.8 µM)	50 µg/mL (≈ 83.1 µM)	1.6 µg/mL (≈ 2.66 µM)	1.5 µg/mL (≈ 2.49 µM)
CCn1cc(C(=O)O)c(=O)c2cc(F)c(N3CCN(C(c4cccc5ccccc45)c4nnnn4C4CCCCC4)CC3)cc21 (configuration not stated)	6.25 µg/mL (≈ 10.3 µM)	3.12 µg/mL (≈ 5.12 µM)	1.4 µg/mL (≈ 2.3 µM)	0.77 µg/mL (≈ 1.26 µM)	8.2 µg/mL (≈ 13.4 µM)	3.7 µg/mL (≈ 6.07 µM)	2.9 µg/mL (≈ 4.76 µM)	1.6 µg/mL (≈ 2.62 µM)	5.29	3.12 µg/mL (≈ 5.12 µM)	25 µg/mL (≈ 41 µM)	4.2 µg/mL (≈ 6.89 µM)	1.6 µg/mL (≈ 2.62 µM)
COc1ccc(C(c2nnnn2C2CCCCC2)N2CCN(c3cc4c(cc3F)c(=O)c(C(=O)O)cn4Cc3ccc(C(F)(F)F)cc3)CC2)c(OC)c1OC (configuration not stated)	> 50 µg/mL	> 50 µg/mL	50 µg/mL (≈ 64.1 µM)	> 50 µg/mL	> 50 µg/mL	> 50 µg/mL	> 50 µg/mL	> 50 µg/mL	4.193	50 µg/mL (≈ 64.1 µM)	> 50 µg/mL	> 50 µg/mL	50 µg/mL (≈ 64.1 µM)
